Literature values in patent US12433863B2, “Pharmaceutical compositions and uses directed to lysosomal storage disorders” (INTRABIO LIMITED, priority 2016, dated 2025).

Tests used:
[1] = system: glycosphingolipid (GSL) biosynthesis; conditions: Patterson, 2006; cited from earlier work
[2] = system: rat model of an acute unilateral labyrinthectomy; conditions: Gunther et al. 2015; cited from earlier work

Compound | Benefit in clinical trial of substrate reduction therapy [1] | Effect on postural compensation [2]
CCCCN1C[C@H](O)[C@@H](O)[C@H](O)[C@H]1CO [miglustat] | some benefit | –
CC(=O)N[C@@H](CC(C)C)C(=O)O [N-acetyl-L-leucine] | – | significant effect
